# Assays:
# Staphylococcus aureus = assay: Bacterial growth inhibition (turbidity OD600) with or without carbonate; format: cell-based; settings: for inhibition of S. aureus growth: 32 μM LL-37
# S. aureus [1] = assay: Electron microscopy of bacterial cell wall lysis; format: cell-based
# keratinocytes = assay: Keratinocyte morphology, LDH release and Annexin V/propidium iodide staining; format: cell-based, human; settings: 24 hours after butyrate alone or in combination with 1,25D3
# S. aureus [2] = assay: Release of cytoplasmic-expressed beta-galactosidase (membrane disruption); format: cell-based; settings: with versus without NaHCO3
# Method: Release of cytoplasmic-expressed beta-galactosidase was measured from bacteria with and without the addition of NaHCO3.
# [3] = test system: Staphylococcus aureus mprF; assay: Radial diffusion assay; format: cell-based
# Method: Sweat collection and processing. Sweat was collected on paper tissues (Kimwipes, Kimberly-Clark, Ga.) from healthy volunteers after exercise. After collection, 20 ml of sweat was centrifuged at 2000 g for 15 min. at 4° C., filtered through a […] (Acrodisc syringe filter, 0.2 mm, low protein binding, Fisher scientific, Tustin, Calif.), and frozen at −80° C. For some experiments sweat was lyophilized to dryness, then suspended in 400 μl of distilled water (DW: cell culture grade, endotoxin free, GibcoBRL, Grand island, NY). For analysis of LL37 processing by sweat, 1.6 nmol of LL-37 synthetic peptide was incubated in 50 ml of sweat for 0, 1, 6, 24 hrs at 37° C. or 4° C. In some experiments proteinase inhibitors including; mixed protease inhibitor cocktail (1tab/10 ml, Roche, Indianapolis, Ind.), […] Bestatin, 10 mg/ml E-64, 10 mg/ml Aprotinin, (Sigma, St Louis, Mo.); 100 mM AEBSF, 100 mM Neutrophil elastase inhibitor (NEI) or 100 mM leukocyte elastase inhibitor (LEI) (Calbiochem, San Diego, Calif.) were added during incubation. After incubation, 2 ml was assayed by radial diffusion assay to determine antibacterial activity. For analysis by HPLC 32 nmoles LL-37 was incubated in 100u1. To control for potential contamination from paper tissues, parallel processing was done on tissues soaked in phosphate-buffered saline (PBS:137 mM NaCl, 2.7 mM KCL, 4.3 mM Na2HPO4-H2O, 1.4 mM KH2PO4, pH 7.4). No antimicrobial activity was detectable in these preparations. Protein concentrations were evaluated by BCA assay (protein assay reagent, Pierce, Rockford, Ill.) or Bradford protein assay (Bio-Rad, Hercules, Calif.) according to manufacture's instructions. Human tissue and blood collection was approved by the UCSD Human Research Protection Program.
# Antimicrobial assays. For screening of antimicrobial activity of HPLC fractions, radial diffusion assay was used. Lyophilized HPLC fractions were dissolved in DW (GibcoBRL, Grand Island, N.Y.), and tested against Staphylococcus aureus mprF. Thin plates (1 mm) of 1% agarose in 0.5% tryptone containing approximately 1×10^6 cells/ml of S. aureus mprF were used. 1 mm wells were punched in the plates and […] of samples dissolved in tissue culture grade sterile water were loaded in each well.
# [4] = test system: wild-type S. aureus (clinical isolate); assay: Radial diffusion assay; format: cell-based
# IL-8 = IL-8 release from normal human keratinocytes (ELISA); format: cell-based
# Method: Measurement of IL-8 release from keratinocytes Normal human keratinocytes (NHK) were cultured in EpiLife cell medium (Cascade Biologics, Portland, Oreg.) containing 0.06 mM Ca2+, 1× EpiLife-defined growth supplement (EDGS), 50 U/ml penicillin and […] streptomycin (Invitrogen, Carlsbad, Calif.). Keratinocytes were seeded in a 96-well plate and grown to confluence under standard tissue culture conditions. Cells were incubated with […] LL-37 or LL37-derived peptides (e.g., cathelicidin functional fragments) for 8 hours at 37° C. Supernatants were collected and stored at −20° C. overnight. IL-8 ELISA Assay was performed according to the manufacturer's instructions (BD OptEIA, Pharmingen, San Diego, Calif.). Supernatants were diluted 1:10 for assay. Simultaneously, LDH assays (Roche, Indianapolis, Ind.) were used to assess the cytotoxicity of peptides to keratinocytes. LDH release following peptide exposure was compared to release induced by 1% Triton X100.
# neutrophil and mast cell = assay: Neutrophil and mast cell chemotaxis; format: cell-based
# FPRL-1 = biological target: T1, FPRL-1 (Homo sapiens, UniProt P25090); assay: FPRL-1 binding
# T1 sequence (P25090 1-351): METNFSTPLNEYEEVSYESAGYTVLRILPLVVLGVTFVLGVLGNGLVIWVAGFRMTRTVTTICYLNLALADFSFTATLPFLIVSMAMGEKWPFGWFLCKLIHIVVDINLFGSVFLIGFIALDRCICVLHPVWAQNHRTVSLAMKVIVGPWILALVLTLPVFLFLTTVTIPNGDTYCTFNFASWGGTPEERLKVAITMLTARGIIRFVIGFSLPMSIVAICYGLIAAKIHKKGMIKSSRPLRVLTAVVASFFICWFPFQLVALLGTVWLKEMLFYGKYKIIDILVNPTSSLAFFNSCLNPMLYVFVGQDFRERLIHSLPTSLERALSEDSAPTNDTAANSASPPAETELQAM
# dendritic cells = assay: Pro-inflammatory chemokine release from dendritic cells; format: cell-based
# CYP27B1 = assay: qPCR of CYP27B1 mRNA in cultured keratinocytes; format: cell-based, human; settings: 24 hours, TGF 1 μg/ml, TNFα 20 ng/ml, TLR2 ligand Malp-2
# Method: Cell culture and stimuli. Human keratinocytes were grown in serum-free EpiLife® cell culture media (Cascade Biologics; Portland, Oreg.) containing 0.06 mM Ca2+ and 1× EpiLife® defined growth supplement (EDGS) at 37° C. under standard tissue culture conditions. Stock cultures were maintained for up to five passages in this media with the addition of 50 U/mL penicillin and 50 μg/mL streptomycin. HaCaT keratinocytes were cultured in DMEM (Sigma, St. Louis, Mo.) with 10% FCS. Cells at 50-70% confluence were stimulated in fresh medium after preincubation with 1,25(OH)2 vitamin D3 (1,25D3; 0.1-100 nM, 4-24 h; Sigma). Alternatively, NHEK were stimulated in the presence of 1,25D3 (0.1-100 nM). […]
# Real-time RT-PCR (qPCR). […] Expression of cathelicidin and GAPDH was analysed by real-time RT-PCR. […] Fold induction relative to the vehicle treated control in in vitro experiments was calculated using the comparative Ct method, where ΔΔCt is ΔCt(stimulant)-ΔCt(vehicle), ΔCt is Ct(gene)-Ct(GAPDH) and Ct is the cycle at which an arbitrary detection threshold is crossed. For quantification of transcript abundance in tissue samples target gene expression was normalized to GAPDH and compared to non-treated or non-injured skin.
molecule,measurement,setting,value
O=C(O)O [NaHCO3],effect of NaHCO3 alone on bacterial growth,"Staphylococcus aureus; 25 mM NaHCO3, no peptide",without effecting bacterial growth
same,effect of NaHCO3 alone on bacterial growth,Staphylococcus aureus; high concentrations of NaHCO3,retarded the growth of S. aureus
same,increase of LL-37 antimicrobial activity by carbonate containing compound,"Staphylococcus aureus; medium with 32 μM LL-37, pH 7.4, KHCO3 and Na2CO3 at 50 mM",responsible for this increase
same,bacterial cell wall damage (EM),S. aureus [1]; 25 mm NaHCO3 alone,no visible effect
CCCC(=O)O [butyrate],"cell morphology, cell death or apoptosis",keratinocytes,"no change was seen in cell morphology, cell death or apoptosis"
LLGDFFRKSKEKIGKEFKRIVQRIKDFLRNLVPRTES [LL-37],inhibition of S. aureus growth,"Staphylococcus aureus; TSB media alone, or with NaCl and FBS",inhibited Staphalococcus aureus growth poorly
same,inhibition of S. aureus growth,Staphylococcus aureus; in the presence of MEM buffers,inhibition was greatly increased
same,growth of S. aureus,"Staphylococcus aureus; 32 μM LL-37 with 25 mM NaHCO3, pH 7.4",complete inhibition of bacterial growth
same,"antimicrobial activity of LL-37, bicarbonate versus pH",Staphylococcus aureus; 50 mM NaHCO3 or 50 mM glycine buffer at various pH,Only bicarbonate containing media was able to confer increased antimicrobial activity
same,change of minimal inhibitory concentration (MIC) by NaHCO3,"Staphylococcus aureus; 20% TSB, 1 mM NaH2PO4, with or without 50 mM NaHCO3, pH 7.4",greatly reduced
same,leakage of cytoplasmic protein (beta-galactosidase),S. aureus [2],induces greater leakage of cytoplasmic protein with carbonate
same,bacterial cell wall damage (EM),"S. aureus [1]; 32 μM LL-37, absence of NaHCO3, four hours",caused a small amount of damage to bacterial cell walls
same,bacterial cell wall damage (EM),"S. aureus [1]; 32 μM LL-37 with 25 mM NaHCO3, four hours",totally ablated them
same,zone of inhibition after incubation of LL-37 in PBS or distilled water,[3]; identical conditions in PBS or distilled water,did not affect activity
same,zone of inhibition after incubation of LL-37 in sweat,[3]; incubation at 37° C. in sweat,increased the zone of inhibition and apparent antimicrobial activity
same,zone of inhibition after incubation of LL-37 in sweat,[3]; incubation in sweat at 4° C.,did not occur at 4 °C
same,"Radial Diffusion Assay, minimal inhibitory concentration (MIC), S. aureus (wt)",[4],4 μm
same,pro-inflammatory release from keratinocytes,IL-8,induces pro-inflammatory release
same,neutrophil and mast cell chemotaxis,neutrophil and mast cell,induces neutrophil and mast cell chemotaxis
same,binding to FPRL-1,FPRL-1,bind FPRL-1
same,pro-inflammatory chemokine release from dendritic cells,dendritic cells,blocks pro-inflammatory chemokine release
Polymyxin B,leakage of cytoplasmic protein (beta-galactosidase),S. aureus [2],induces greater leakage of cytoplasmic protein with carbonate
TNFα,CYP27B1 expression,CYP27B1,had no effect
